Experiments:
[1] = system: gumbo plants; assay: Example 4: herbicide-induced plant injury or death from precursor mixtures of different lactose to methacrylic anhydride ratios, visual rating; type: in vivo; conditions: 14 days after spraying; glyphosate about 2.34% v/v, 10 gallons spray solution per acre; greenhouse; 100% = total death
Experimental: Release of an herbicide from loaded hydrogels was indirectly studied by examining plant injury or death. Hydrogel precursor mixtures were prepared according to the method 200 illustrated in FIG. 2. The precursor mixture was prepared at a lactose to methacrylic anhydride ratio of 1:0.5, 1:0.25, or 1:0.1 (test groups).
Glyphosate (as Touchdown HiTech®, Syngenta) alone (control group) or glyphosate plus hydrogel precursor mixture (test groups) was added to water to form a spray solution. The amount of glyphosate in spray solution was approximately the same (i.e., about 2.34% v/v) for each control and test group. Test groups also included one of the hydrogel precursor mixtures at 5% v/v. Each group included five gumbo plants in a greenhouse. Control or test groups were sprayed at 10 gallons of spray solution per acre. In the test groups, the hydrogel precursor mixtures plus glyphosate were allowed to crosslink in ambient conditions after application to the plants.
Plant injury or death, from direct glyphosate application (control) or release of glyphosate from carrier hydrogels (tests), was measured after 14 days by a visual rating system. Results are presented in FIG. 5 as plant injury or death as a percentage, where “100% control” represents total death of a plant. The same letter attributed to more than one group indicates no statistically significant difference between those groups. […]

[2] = system: gumbo plants; assay: Example 3: herbicide-induced plant injury or death from carrier hydrogel precursor mixtures applied to plants, visual rating; type: in vivo; conditions: 14 days after spraying; glyphosate about 2.34% v/v, 10 gallons spray solution per acre; greenhouse; 100% = total death
Experimental: Release of an herbicide from loaded hydrogels was indirectly studied by examining plant injury or death. Hydrogel precursor mixtures were prepared according to the method 200 illustrated in FIG. 2. The precursor mixture was prepared at a lactose to methacrylic anhydride ratio of 1:0.5.
Glyphosate (as Touchdown HiTech®, Syngenta) alone (control group) or glyphosate plus hydrogel precursor mixture (test groups) was added to water to form a spray solution. The amount of glyphosate in a spray solution was approximately the same (i.e., about 2.34% v/v) for each control and test group. Test groups also included hydrogel precursor mixture at 5% v/v, 10% v/v, 20% v/v, 25% v/v, or 50% v/v of spray solution. Each group included five gumbo plants in a greenhouse. Control or test groups were sprayed at 10 gallons of spray solution per acre. In the test groups, the hydrogel precursor mixtures plus glyphosate were allowed to crosslink in ambient conditions after application to the plants.
Plant injury or death, from direct glyphosate application (control) or release of glyphosate from carrier hydrogels (tests), was measured after 14 days by a visual rating system. Results are presented in FIG. 5 as plant injury or death as a percentage, where “100% control” represents total death of a plant. […]

Compound: O=C(O)CNCP(=O)(O)O [Glyphosate, N-(phosphonomethyl)glycine]
- Plant injury or death (average damage on plants) [1]: 55%
- Plant injury or death (average damage on plants) [2]: 85%

Reference: patent US12642269B2, “Hydrogels as carriers of active ingredients and methods of producing the same” (WinField Solutions, LLC, priority 2018, dated 2026)
